Experimental data taken from paper PMC10269895 (Microbiology Spectrum, 2023).
Values after ≈ are worked out from the molar mass of the structure shown. Values joined by “and” are separate entries in the source; they are usually repeats but may differ in a detail not shown here. Equal values may be shown once. Read-outs that look alike come from different tables or passages of the source.

Tests used:
[1] = test system: C. freundii ATCC 8090
Method: MICs were determined by adapting the protocol from CLSI guidelines (Table 1; [15]). Briefly, from an overnight preculture, 49.2 μL of an inoculum of 5 × 10^5 CFU/mL in MH broth or DMEM was dispensed into 384-well plates, and 0.8 μL of compounds solubilized in dimethyl sulfoxide (DMSO) and serially diluted was added to the bacterial cultures. […] MICs were determined by measurement of the optical density at 600 nm (OD600). The experiments were performed in duplicate. Commercially available strains were obtained from the American Type Culture Collection (ATCC), the German Collection of Microorganisms and Cell Cultures (DSMZ), and the Biological Resource Center of Institut Pasteur (CRBIP).

[2] = Solubility in phosphate buffer (pH 7.4); type: physicochemical
Method: (i) Solubility in phosphate buffer (pH 7.4). For calibration, approximately 2 mg of GE81112A was weighed into a HPLC glass vial. DMSO was added to reach a target concentration of 2 mg/mL. Dilutions for calibration (10 μg/mL, 50 μg/mL, and 100 μg/mL) were prepared by adding adjusted volumes of DMSO and were correlated with ultraperformance liquid chromatography (UPLC)-UV peak areas at 220 nm. For solubility determinations, 2 mg of GE81112A was weighed into a HPLC glass vial. Phosphate buffer (pH 7.4) was added to reach a target concentration of 2 mg/mL. The vial was shaken for 16 h at 25°C, with protection from light, on an Eppendorf thermomixer at 600 rpm, followed by centrifugation at 10,000 rpm for 5 min at 25°C and filtration through a 0.45-μm filter. The filtrated supernatant was analyzed (UPLC-UV, λ = 220 nm), and the concentration of the analyte in the filtrate was calculated based on the peak area/real concentration ratio from previous calibration runs.

[3] = Solubility in 0.9% NaCl solution; type: physicochemical; details: sodium chloride solution (0.9%)
Method: (ii) Solubility in 0.9% NaCl solution. To obtain a crystal-like form of the compound, GE81112A was dissolved in water followed by freeze-drying. Afterwards, 510 μg GE81112A was transferred to a glass vial with a microinsert, and 50 μL NaCl (0.9%) was added.

[4] = Metabolic stability in liver microsomes; type: in vitro ADME; details: 5 μM
Method: Microsomal preparations from human and animal species were used at a protein concentration of 1 mg/mL, and the cofactor NADPH was added to a final concentration of 1 mM to assay for CYP and flavin-containing monooxygenase (FMO) lability. GE81112A at 5 μM was incubated for 20 min at 37°C. The enzymatic reaction was initiated by a rapid temperature increase in a water bath at 37°C. It was stopped by a rapid temperature decrease in an ice bath at 0°C and subsequent addition of 5 volumes of precooled acetonitrile (500 μL). Loss of parent GE81112A concentration, as a percentage, was determined using LC-MS/MS measurements, where 100% was the measurement at time zero.

[5] = Plasma stability; type: in vitro ADME; details: for Degradation: after 4 h
Method: For plasma clearance, peptides were dissolved as 1 mM stock solutions in sterile deionized water and incubated at 37°C in 500 μL plasma derived from different species (human, mouse, and rat) at a final concentration of 5 μM. At different time points (0, 1, and 4 h), 100-μL samples were transferred to 500 μL ethanol containing 0.5% (vol/vol) ammonia, and plasma proteins were precipitated for 20 min at 1,735 × g. Each 10-μL supernatant sample was separated on a Triart C18 column (1.9 μm, 20 by 2 mm; YMC, Kyoto, Japan) with an ascending acetonitrile gradient in water (supplemented with 0.1% formic acid), at a flow rate of 500 μL/min. Samples were analyzed in triplicate by LC-MS/MS as above, and the stability of the parent peptides was evaluated based on the comparison of blank samples with incubated samples.

[6] = test system: G-protein-coupled receptors, ion channels, NET and DAT panel; assay: Pharmacological off-target profiling: in vitro binding assays (CEREP); parameters: species or system human unless stated (rat); details: 0.01 mM
Description: FIG 3 In vitro binding assays. Inhibitory effects of GE81112A were investigated for G-protein-coupled receptors for adenosine (A1 and A2A), […] (α1A, α2A, β1, and β2), cannabinoids (CB1 and CB2), dopamine (D1 and D2S), histamine (H1 and H2), acetylcholine (M1, M2, and M3), opioids (μ-MOP), and serotonin (5-HT1A, 5-HT2A, and 5-HT2B), the ion channels Gly (rat), nAChR (α4β2), nAChR (muscle type), PCP (rat), Cav1.2 (rat), Kv (rat), SKCa (rat), and GABACl (rat), NET (GenBank accession number P23975), and DAT (GenBank accession number Q01959).

[7] = PK in mice after a single i.v. administration; type: in vivo, male Swiss mice; details: 10 mg/kg i.v.
Method: In order to determine the PK parameters of GE81112A, a single i.v. dose of 10 mg/kg in solution was administered to male Swiss mice, and plasma, urine, and tissue concentrations were monitored over 24 h (Fig. 2). After i.v. dosing, the different parameters were investigated in more detail. A high distribution of GE81112A in the kidney points toward its excretion via urine. Therefore, urinary tract infections (UTIs) represent the most probable scope of application (Table 2).
Plasma, urine, and tissue concentrations and PK parameters for GE81112 were assessed after a single i.v. administration of a 10-mg/kg solution to male Swiss mice. Briefly, 5 mL/kg of a 2-mg/mL solution of GE81112A was administered i.v. to fed male Swiss mice (weight of 20 g, obtained from Janvier; n = 24 mice). Samples were collected at 0.08, 0.25, 0.5, 1, 2, 4, 8, and 24 h postadministration for bioanalysis. Bioanalytical samples (plasma, urine, and tissue) were analyzed for the concentration of GE81112 using an exploratory LC-MS/MS method, and PK parameters were estimated using the PK software Phoenix WinNonlin v6.4, using a noncompartmental model and a linear trapezoidal interpolation calculation. The studies were ethically approved by the German governmental authority (protocol number FH/2002; Regierungspräsidium Darmstadt).

[8] = test system: PDE3A, acetylcholinesterase, MAO-A, Na+/K+-ATPase; details: 0.01 mM
Method: The targets were human recombinant proteins unless a different species is stated. All tests were conducted at a peptide concentration of 0.01 mM according to CEREP procedures.
Pharmacological off-target profiling was conducted by CEREP (Celle-Le’vescault, France) to investigate inhibitory effects against the targets specified in Fig. 3 and 4. […] We selected 19 G-protein-coupled receptors (acetylcholine, adenosine, androgens, cannabinoids, dopamine, histamine, opioids, and serotonin), eight ion channels (Gly, nicotinic acetylcholine receptor [nAChR], phencyclidine [PCP], Cav1.2, Kv, SKCa, and γ-aminobutyric acid-gated chloride channels [GABACl]), two transporters (dopamine transporter [DAT] and noradrenaline transporter [NET]), and four enzymes (phosphodiesterase [PDE], acetylcholinesterase, monoamine oxidase (MAO), and Na^+/K^+-ATPase) for testing.

Which MIC ([1]; DMEM) does the source give for `NC(=O)OC[C@@H](O)C[C@H](NC(=O)[C@H]1NCCC[C@H]1O)C(=O)N[C@@H](Cc1c[nH]cn1)C(=O)N[C@H](C(=O)O)[C@H](O)c1cnc(Cl)[nH]1` [GE81112A] here?
The MIC was 32 µg/mL (≈ 49.7 µM).

What about the MIC ([1]; MHII) of the same compound?
The MIC was greater than 64 µg/mL.

What about the solubility at 16 h [2] of the same compound?
Its solubility at 16 h is greater than 500 µg/mL.

And the solubility [3]?
Its solubility is greater than 500 µg/mL.

What about the Oxidative metabolic lability ([4]; human liver microsomes) of the same compound?
The Oxidative metabolic lability was “low”.

What about the Oxidative metabolic lability ([4]; mouse liver microsomes) of the same compound?
The Oxidative metabolic lability was “low”.

And the Oxidative metabolic lability ([4]; rat liver microsomes)?
Its Oxidative metabolic lability is “low”.

What about the metabolised at 1 h, 1 μM ([5]; human blood plasma, 37°C, 1 h, read-out: Hydrolysis) of the same compound?
The metabolised at 1 h, 1 μM was 3%.

What about the metabolised at 4 h, 1 μM ([5]; human blood plasma, 37°C, 4 h, read-out: Hydrolysis) of the same compound?
Its metabolised at 4 h, 1 μM is 27%.

What about the Degradation ([5]; mouse blood plasma) of the same compound?
The Degradation was “No degradation”.

And the Degradation ([5]; rat blood plasma)?
The Degradation was “No degradation”.

And the “Off-target inhibitory effects, binding assays” value [6]?
Its value is “no critical inhibiting effect”.

What about the “Tissue/plasma ratio, kidney” value [7] of the same compound?
Its value is 3.00.

What about the “Tissue/plasma ratio, liver” value [7] of the same compound?
Its value is 20 and 20.6.

What about the “Tissue/plasma ratio, lung” value [7] of the same compound?
Its value is 0.515.

What about the “Proportion of dose recovered in urine” value ([7]; over 24 h) of the same compound?
The value was 30%.

What about the clearance ([7]; male, Swiss, mouse, in vivo, iv) of the same compound?
Its clearance is 12.2 mL/min/kg.

What about the Vd ([7]; male, Swiss, mouse, in vivo, iv, read-out: Volume of distribution) of the same compound?
Its Vd is 0.321 L/kg.

What about the half-life ([7]; male, Swiss, mouse, plasma, iv) of the same compound?
Its half-life is 4.5 h.

What about the dose excreted ([7]; male, Swiss, mouse, urine, iv, over 24 h, read-out: Proportion of dose recovered in urine) of the same compound?
The dose excreted was 30%.

And the “Off-target inhibitory effects, enzyme and uptake assays” value [8]?
Its value is “no critical inhibiting effect”.
